Measurements: ChEMBL document CHEMBL3045917, “Insecticidal cyclodepsipeptides from Beauveria felina” (2011)
Values after ≈ are worked out from the molar mass of the structure shown. Where a SMILES comes first, the peptide text is derived from it. [ ]: non-standard residue; d: D form. ξ: configuration not given here. ξLac(3-iPr) = CC(C)CC(O)C(=O)O; NMeV = CN[C@H](C(=O)O)C(C)C; βAla = NCCC(=O)O

Tests used:
Sitophilus = test: Insecticidal activity against Sitophilus spp. assessed as mortality after 5 days; assay type: functional; details: 120 h, read-out: LD50 (the source's name)
Callosobruchus maculatus = test: Insecticidal activity against Callosobruchus maculatus assessed as mortality after 5 days; assay type: functional; details: 120 h, read-out: LD50 (the source's name)

| SMILES | LC50 (Sitophilus) [µg/mL] | LC50 (Callosobruchus maculatus) [µg/mL] |
| --- | --- | --- |
| CC(C)CC1OC(=O)CCNC(=O)[C@H](C(C)C)N(C)C(=O)[C@H](C(C)C)N(C)C(=O)[C@H](Cc2ccccc2)NC(=O)[C@@H]2CCCN2C1=O (stereo partly drawn) [ISARIDIN E] (cyclo(F[NMeV][NMeV][βAla][ξLac(3-iPr)]P)) | 300 (≈ 457 µM) | 220 (≈ 335 µM) |
| CCCCC(C)C1CC(=O)NCC(=O)N[C@@H](C(C)C)C(=O)N[C@H](CC(C)C)C(=O)N[C@@H](C)C(=O)N[C@H](C(C)C)C(=O)O1 (stereo partly drawn) [ISO-ISARIIN B] | 10 (≈ 16.8 µM) |  |
